How the values were obtained:
Format in all cases: biochemical
[1] = target: T1, Human lysosome (α-glucosidase) (Homo sapiens, UniProt P10253); test: enzyme inhibition assay; conditions: read-out: IC50 ^a / MON-6d-DGJ
T1 construct: gene GAA
Source text: enzyme inhibition assay on Human lysosome (α-glucosidase)

[2] = target: T2, ceramide glucosyltransferase (HL60 glucosyltransferase) (Homo sapiens, UniProt Q16739); test: enzyme inhibition assay, enzyme isolated from HL60 cells; conditions: read-out: IC50 ^a / MON-6d-DGJ
T2 construct: gene UGCG; native enzyme isolated from human promyelocytic HL60 cells
T2 sequence (Q16739 1-394): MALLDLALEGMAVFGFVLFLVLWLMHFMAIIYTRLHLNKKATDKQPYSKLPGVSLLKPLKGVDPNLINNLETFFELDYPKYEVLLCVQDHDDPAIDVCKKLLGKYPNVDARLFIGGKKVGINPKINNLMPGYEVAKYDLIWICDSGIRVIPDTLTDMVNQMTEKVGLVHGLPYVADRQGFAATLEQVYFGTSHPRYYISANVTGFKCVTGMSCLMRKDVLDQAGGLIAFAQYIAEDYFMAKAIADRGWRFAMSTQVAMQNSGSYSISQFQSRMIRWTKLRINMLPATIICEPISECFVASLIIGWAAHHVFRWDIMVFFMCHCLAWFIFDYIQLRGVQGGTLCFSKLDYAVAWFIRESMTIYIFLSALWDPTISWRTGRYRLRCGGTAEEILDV
Source text: enzyme inhibition assay, enzyme isolated from HL60 cells on ceramide glucosyltransferase (HL60 glucosyltransferase)

[3] = target: T3, Rat intestinal maltase; test: enzyme inhibition assay; conditions: IC50 not reached up to maximal dose; read-out: IC50 ^a / MON-6d-DGJ
T3 construct: gene Mgam; native rat intestinal enzyme activity; maltase may be maltase-glucoamylase and/or sucrase-isomaltase
Source text: enzyme inhibition assay on Rat intestinal maltase

[4] = target: T4, Mouse ER α-glucosidase I (Mus musculus, UniProt Q80UM7); test: enzyme inhibition assay, purified enzyme; conditions: read-out: IC50 ^a / MON-6d-DGJ
T4 construct: gene Mogs
T4 sequence (Q80UM7 1-834): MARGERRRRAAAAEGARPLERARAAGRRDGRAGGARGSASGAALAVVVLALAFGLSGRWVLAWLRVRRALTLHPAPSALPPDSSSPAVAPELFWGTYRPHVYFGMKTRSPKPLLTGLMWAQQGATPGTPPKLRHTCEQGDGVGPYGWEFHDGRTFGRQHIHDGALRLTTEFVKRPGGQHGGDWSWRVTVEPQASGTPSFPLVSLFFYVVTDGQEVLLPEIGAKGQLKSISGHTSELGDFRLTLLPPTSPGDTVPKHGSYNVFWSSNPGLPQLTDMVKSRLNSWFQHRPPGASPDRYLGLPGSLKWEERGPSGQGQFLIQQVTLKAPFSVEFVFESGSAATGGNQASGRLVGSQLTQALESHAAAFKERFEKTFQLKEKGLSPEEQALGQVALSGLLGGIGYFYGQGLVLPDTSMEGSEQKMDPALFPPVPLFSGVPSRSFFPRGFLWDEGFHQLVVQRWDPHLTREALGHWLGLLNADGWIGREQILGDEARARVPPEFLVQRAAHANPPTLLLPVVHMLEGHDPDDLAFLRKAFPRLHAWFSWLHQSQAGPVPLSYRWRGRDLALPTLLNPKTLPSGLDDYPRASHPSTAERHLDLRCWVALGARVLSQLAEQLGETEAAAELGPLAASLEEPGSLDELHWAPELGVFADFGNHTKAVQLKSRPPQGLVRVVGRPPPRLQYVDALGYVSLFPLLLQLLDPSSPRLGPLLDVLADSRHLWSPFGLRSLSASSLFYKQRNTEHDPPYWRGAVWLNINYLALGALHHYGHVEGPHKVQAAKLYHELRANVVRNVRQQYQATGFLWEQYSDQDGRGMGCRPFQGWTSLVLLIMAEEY
Source text: enzyme inhibition assay, purified enzyme on Mouse ER α-glucosidase I

[5] = target: T5, Rat intestinal sucrase (Rattus norvegicus, UniProt P23739); test: enzyme inhibition assay; conditions: read-out: IC50 ^a / MON-6d-DGJ
T5 construct: gene Si; native rat intestinal enzyme; sucrase (C-terminal) subunit of sucrase-isomaltase
T5 sequence (P23739 1014-1841 limits assumed): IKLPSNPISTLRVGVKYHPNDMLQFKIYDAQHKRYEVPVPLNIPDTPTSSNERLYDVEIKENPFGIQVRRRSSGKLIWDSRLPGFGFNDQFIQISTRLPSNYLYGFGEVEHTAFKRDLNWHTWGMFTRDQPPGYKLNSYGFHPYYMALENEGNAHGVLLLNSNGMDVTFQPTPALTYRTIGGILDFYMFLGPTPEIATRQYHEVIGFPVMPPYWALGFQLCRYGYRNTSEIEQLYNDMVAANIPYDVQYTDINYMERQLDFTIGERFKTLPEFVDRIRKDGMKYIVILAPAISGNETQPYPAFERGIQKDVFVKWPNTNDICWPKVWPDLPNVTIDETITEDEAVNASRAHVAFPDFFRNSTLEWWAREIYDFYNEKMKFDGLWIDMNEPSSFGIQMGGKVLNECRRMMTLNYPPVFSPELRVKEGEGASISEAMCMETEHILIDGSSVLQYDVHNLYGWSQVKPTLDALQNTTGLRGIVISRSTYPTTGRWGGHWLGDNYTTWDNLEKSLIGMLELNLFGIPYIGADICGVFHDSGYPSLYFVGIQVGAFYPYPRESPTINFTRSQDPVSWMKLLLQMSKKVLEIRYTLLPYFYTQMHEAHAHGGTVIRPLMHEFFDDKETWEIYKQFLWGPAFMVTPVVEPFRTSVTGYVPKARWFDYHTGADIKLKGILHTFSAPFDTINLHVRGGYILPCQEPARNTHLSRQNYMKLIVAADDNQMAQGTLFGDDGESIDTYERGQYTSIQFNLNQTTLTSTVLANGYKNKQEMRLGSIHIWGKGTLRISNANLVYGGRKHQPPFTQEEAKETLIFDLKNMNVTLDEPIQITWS
Source text: enzyme inhibition assay on Rat intestinal sucrase

[6] = target: T6, Mouse ER α-glucosidase II (Mus musculus, UniProt Q8BHN3); test: enzyme inhibition assay, purified enzyme; conditions: read-out: IC50 ^a / MON-6d-DGJ
T6 construct: gene Ganab; with Glucosidase 2 subunit beta
T6 sequence (Q8BHN3 33-944): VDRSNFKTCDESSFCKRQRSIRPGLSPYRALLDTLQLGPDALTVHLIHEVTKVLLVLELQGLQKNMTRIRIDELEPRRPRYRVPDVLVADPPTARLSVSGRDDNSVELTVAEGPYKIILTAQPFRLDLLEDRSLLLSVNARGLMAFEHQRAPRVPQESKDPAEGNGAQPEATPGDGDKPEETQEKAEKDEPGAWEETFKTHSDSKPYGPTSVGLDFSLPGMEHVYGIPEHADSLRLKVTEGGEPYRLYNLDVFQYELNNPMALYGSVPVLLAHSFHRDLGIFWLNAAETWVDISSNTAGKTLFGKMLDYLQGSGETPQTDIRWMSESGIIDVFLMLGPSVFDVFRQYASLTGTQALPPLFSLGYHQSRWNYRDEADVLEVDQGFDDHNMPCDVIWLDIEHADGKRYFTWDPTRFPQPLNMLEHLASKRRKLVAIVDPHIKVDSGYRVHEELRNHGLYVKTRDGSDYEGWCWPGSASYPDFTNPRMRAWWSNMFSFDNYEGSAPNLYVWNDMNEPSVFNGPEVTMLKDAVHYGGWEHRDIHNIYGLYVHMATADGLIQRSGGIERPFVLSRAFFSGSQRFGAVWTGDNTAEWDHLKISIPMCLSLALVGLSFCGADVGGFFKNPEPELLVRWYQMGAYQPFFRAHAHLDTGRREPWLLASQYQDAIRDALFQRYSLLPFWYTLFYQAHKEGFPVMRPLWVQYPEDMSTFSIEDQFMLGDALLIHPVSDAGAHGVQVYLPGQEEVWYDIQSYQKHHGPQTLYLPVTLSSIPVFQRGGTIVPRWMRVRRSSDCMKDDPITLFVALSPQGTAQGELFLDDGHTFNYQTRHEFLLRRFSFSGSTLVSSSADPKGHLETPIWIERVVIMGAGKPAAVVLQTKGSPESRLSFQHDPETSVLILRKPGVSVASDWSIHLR
T6 sequence (O08795 15-521 partner): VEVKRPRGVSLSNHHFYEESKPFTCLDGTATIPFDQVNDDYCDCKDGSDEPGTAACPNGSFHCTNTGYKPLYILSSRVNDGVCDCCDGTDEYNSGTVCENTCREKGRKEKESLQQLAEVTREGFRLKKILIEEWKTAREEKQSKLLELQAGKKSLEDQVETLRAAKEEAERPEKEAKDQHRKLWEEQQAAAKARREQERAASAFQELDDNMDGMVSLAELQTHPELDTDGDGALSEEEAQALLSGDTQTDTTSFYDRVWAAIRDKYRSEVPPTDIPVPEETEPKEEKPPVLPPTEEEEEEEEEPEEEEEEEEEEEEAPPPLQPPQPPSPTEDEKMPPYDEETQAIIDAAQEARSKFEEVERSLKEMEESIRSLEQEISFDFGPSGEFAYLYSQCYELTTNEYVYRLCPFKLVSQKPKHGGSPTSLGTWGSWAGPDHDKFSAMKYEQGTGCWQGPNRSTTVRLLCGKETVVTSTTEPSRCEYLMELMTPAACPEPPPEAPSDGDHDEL
Source text: enzyme inhibition assay, purified enzyme on Mouse ER α-glucosidase II

[7] = target: T7, Rat intestinal isomaltase (Rattus norvegicus, UniProt P23739); test: enzyme inhibition assay; conditions: read-out: IC50 ^a / MON-6d-DGJ
T7 construct: gene Si; native rat intestinal enzyme; isomaltase (N-terminal) subunit of sucrase-isomaltase
T7 sequence (P23739 1-1013 limits assumed): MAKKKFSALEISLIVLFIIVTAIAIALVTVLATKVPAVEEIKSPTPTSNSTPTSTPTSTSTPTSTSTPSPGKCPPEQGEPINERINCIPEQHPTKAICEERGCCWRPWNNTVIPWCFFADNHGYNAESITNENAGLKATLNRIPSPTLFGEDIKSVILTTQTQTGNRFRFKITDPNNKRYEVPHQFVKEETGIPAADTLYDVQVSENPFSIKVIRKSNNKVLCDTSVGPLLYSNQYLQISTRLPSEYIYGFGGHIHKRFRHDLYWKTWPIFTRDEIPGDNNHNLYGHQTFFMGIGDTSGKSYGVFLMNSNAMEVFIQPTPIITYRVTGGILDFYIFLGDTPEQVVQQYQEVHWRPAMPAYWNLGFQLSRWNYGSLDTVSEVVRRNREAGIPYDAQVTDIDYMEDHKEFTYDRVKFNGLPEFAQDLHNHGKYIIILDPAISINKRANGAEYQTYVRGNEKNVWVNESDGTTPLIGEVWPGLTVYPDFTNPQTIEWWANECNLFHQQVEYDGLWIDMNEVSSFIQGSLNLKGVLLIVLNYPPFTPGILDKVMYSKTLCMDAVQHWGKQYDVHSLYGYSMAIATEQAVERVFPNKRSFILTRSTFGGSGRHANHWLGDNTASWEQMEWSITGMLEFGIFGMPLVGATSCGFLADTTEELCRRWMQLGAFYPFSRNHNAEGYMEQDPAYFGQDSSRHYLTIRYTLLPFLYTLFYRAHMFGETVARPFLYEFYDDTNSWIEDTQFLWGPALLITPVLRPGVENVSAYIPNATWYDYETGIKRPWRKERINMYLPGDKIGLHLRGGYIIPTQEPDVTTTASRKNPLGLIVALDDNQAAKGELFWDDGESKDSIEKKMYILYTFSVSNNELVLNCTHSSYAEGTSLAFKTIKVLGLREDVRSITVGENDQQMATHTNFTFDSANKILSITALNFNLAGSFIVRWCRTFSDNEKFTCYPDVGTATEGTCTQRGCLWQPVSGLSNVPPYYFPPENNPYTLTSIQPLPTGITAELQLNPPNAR
Source text: enzyme inhibition assay on Rat intestinal isomaltase

[8] = target: T8, Human lysosome (α-galactosidase) (Homo sapiens, UniProt P06280); test: enzyme inhibition assay; conditions: read-out: IC50 ^a / MON-6d-DGJ
T8 construct: gene GLA
T8 sequence (P06280 32-429): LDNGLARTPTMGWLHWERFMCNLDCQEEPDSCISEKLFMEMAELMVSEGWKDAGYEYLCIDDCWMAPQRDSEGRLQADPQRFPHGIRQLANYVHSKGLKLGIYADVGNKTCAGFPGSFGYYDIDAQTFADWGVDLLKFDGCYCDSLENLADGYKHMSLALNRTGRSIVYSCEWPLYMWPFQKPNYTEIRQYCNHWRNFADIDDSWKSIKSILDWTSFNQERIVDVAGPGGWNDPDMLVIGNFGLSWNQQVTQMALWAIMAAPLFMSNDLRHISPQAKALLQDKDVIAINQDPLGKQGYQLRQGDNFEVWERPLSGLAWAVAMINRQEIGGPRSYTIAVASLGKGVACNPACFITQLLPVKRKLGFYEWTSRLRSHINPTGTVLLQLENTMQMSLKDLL
Source text: enzyme inhibition assay on Human lysosome (α-galactosidase)

With `COCCCCCCCCCN1C[C@H](O)[C@@H](O)[C@@H](O)[C@H]1C` [MON-6d-DGJ, N-(9′-methoxynonyl)-1,6-dideoxygalactonojirimycin] the IC50 [1] was > 1050 µM, the IC50 [2] was 88.3 µM and the IC50 [3] was > 1050 µM. The IC50 [4] was > 1050 µM, the IC50 [5] was > 1050 µM and the IC50 [6] was > 1050 µM. For the same compound, the IC50 [7] was > 1050 µM and the IC50 [8] was 256 µM.

Source: PMC5064435, “Inhibition of endoplasmic reticulum glucosidases is required for in vitro and in vivo dengue antiviral activity by the iminosugar UV-4” (Antiviral Research, 2016)
